The results in this text go back to patent EP4813463A2, “TYK2 INHIBITORS AND COMPOSITIONS AND METHODS THEREOF” (Lynk Pharmaceuticals Co. Ltd., priority 2023, dated 2024).

Data set [1] relates to T cell transfer colitis model. The data set is described as follows: SCID mice colitis by T cell transfer pharmacodynamics study. In kind it is in vivo, C.B17-SCID mice. How it is done:
This study aimed to obtain the pharmacodynamics of the test article in T cell transfer colitis model after oral administration. For induction of colitis, naive CD4^+ T cells (CD4^+CD44^lowCD62L^high) were adoptively transferred from MHC-compatible Balb/c mice to C.B17-SCID recipients. Balb/c splenocytes were […] selected for CD4^+ T cells using the Mouse Naïve CD4^+ T Cell Isolation Kit (Cat #19765, […]), 1.5×10^6 cells in a volume of 100 µL PBS were transferred to each recipient by i.v. injection on Day 0. C.B17-SCID mice obtained from the Beijing Vital River Laboratory Animal Technology Co., Ltd. Starting on Day 0 and continuing daily through Day 32, mice (n = 8 per group) were dosed with 0 (vehicle control), 45 mg/kg PO BID compound 7A in a vehicle containing 5% DMSO, 65% PEG400, and 30% DDH2O (v/v/v).
Each mouse was scored three times weekly for pathological features, including stool consistency, and body weight loss. Individual scores were combined to generate the DAI, the maximum score was 6. At the termination of the study, the colon was collected for measuring colon index (weight, length, and density), emptied of fecal contents opened longitudinally along the mesenteric border, and formed a Swiss-Roll from the proximal to the distal end, processed to paraffin-embedded blocks to generate 5-µm-thick sections for hematoxylin and eosin (H&E) staining. Slices were evaluated in a blinded manner and histological scores were assessed based on the following parameters: inflammation, epithelial defects, crypt atrophy, dysplasia, and the area affected by dysplasia.

A short description of data set [2]: Brain pharmacokinetic studies in rats. In kind it is in vivo, Sprague-Dawley rats. The conditions noted are these: for half-life / Kp / AUC: rats, iv, 3 mg/kg, solution; for Kp: read-out: Brain AUC/Systemic AUC; for brain exposure in Rats: result in words. Here is the method: Pharmacokinetic profiles of test articles were evaluated in fasted Sprague-Dawley rats. Different kinds of formulations were designed to ensure test articles fully dissolved and wouldn't precipitate in 1:10 SGF or FaSSIF dilution. Typically, Rats were dosed with 3 mg/kg and 5 mg/kg by intravenous injection and oral gavage, respectively. The animal was restrained manually at the designated time points, approximately 150 µL of blood sample was collected via jugular vein for serial bleeding into K2EDTA tubes. The blood samples were maintained in wet ice first and centrifuged to obtain plasma (2000g, 4°C, 5 min) within 30 minutes post sampling. Anesthetizing the rat with the Isoflurane vaporizer to 2%~3% and place its back on the operation table. Spread the animal limbs and pin the limbs on the operation table. Make a cut along the sternum about 4cm long, low enough to expose the sternum's end. Expose the heart and use a 25-gauge needle connected with a 20 mL syringe filled with 20 mL of cold saline to pierce the left ventricle. Maintain the placement of the needle, and slowly push the syringe plunger to wash the brain with saline. The perfusion will be finished within about 2 min and then take the brain out of the body carefully without damaging the tissue. Dry the tissue on filtrate paper, which should be placed on ice, and then weigh the brain tissue and store at -70 °C and analyzed by LC/MS/MS for quantification. PK parameter values, including, but not necessarily limited to, the maximum plasma concentrations (Cmax), and the area under the plasma concentration vs. time curve (AUC) from time zero to 24-hour (AUC0-24h) were determined using WinNonlin program. Table 13. Systemic Pharmacokinetic Parameters in Sprague-Dawley Rats

The nature of data set [3]: Brain pharmacokinetic studies in dogs. The conditions noted are these: for AUC / Kp: Beagle dogs, iv, 2 mg/kg, solution; for AUC: AUC0-4h; for Kp: read-out: Brain AUC/Systemic AUC; for brain exposure in Dogs: result in words. The data set is classed as in vivo, Beagle dogs. How it is done:
Pharmacokinetic profiles of test articles were evaluated in Beagle dogs. Different kinds of formulations were designed to ensure test articles fully dissolved and wouldn't precipitate in 1:10 SGF or FaSSIF dilution. The animal was restrained manually at the designated time points, approximately 500 µL of blood sample was collected via cephalic vein into K2EDTA tubes. The blood samples were maintained in wet ice first and centrifuged to obtain plasma (2000g, 4°C, 5 min) within 15 minutes post sampling. The animal was euthanized with pure […] inhalation. Shave the hair on the back of head and neck, and clean the skin of the area with iodine and 75% ethanol. Inject about 4-5 L saline from carotid artery for perfusion. Brain was collected after the perfusion fluid (saline) was gradually clarified. Dry the tissue on filtrate paper on ice, and then weigh the brain tissue and store at -70°C for later analysis. […] Table 15. Systemic Pharmacokinetic Parameters in Beagle Dogs

A short description of data set [4]: Pharmacokinetic study in mice. The data set is classed as in vivo. The following applies: mouse, plasma, solution. How it is done:
Pharmacokinetic profiles of test articles were evaluated in fasted mouse, Sprague-Dawley rats and Beagle dogs. After dosing, blood samples were collected at each time point. For IV injection group, time points were set at 5, 15, 30 min, and then 1, 2, 4, 8 and 24 hours after dosing. For oral gavage group,#time points were set at 15, 30 min, and then 1, 2, 4, 8, and 24 hours. Blood was collected into appropriately labeled tubes containing K2EDTA as the anticoagulant. Plasma was obtained within 1 hours of blood collection by centrifugation at 8000×g and 4 °C for 6 minutes, and then stored at -20 °C until analyzed by LC/MS/MS for quantification. PK parameter values, including, but not necessarily limited to, the maximum plasma concentrations (Cmax), the time to reach the maximum concentrations (Tmax), and the area under the plasma concentration vs. time curve (AUC) from time zero to 24-hour (AUC0-24h) were determined using WinNonlin program. Table 17. Pharmacokinetic Parameters in Beagle dogs by Intravenous Administration

Setting [5] is: 45mpk PO BID, Day 0 through Day 32, mean ± SEM, n = 8.
Where [6] appears, read: Sprague-Dawley, rat, systemic (plasma).
Where [7] appears, read: Sprague-Dawley, rat, systemic (plasma), read-out: AUC.
[8] abbreviates: dog, systemic (plasma), read-out: AUC.

Consider `[2H]C([2H])([2H])NC(=O)c1cnc(NC(=O)C2CC2)cc1Nc1cnn2ccc([C@H](O)C(F)(F)F)c(OC)c12` [Example 7A, (S)-6-(cyclopropanecarboxamido)-4-((4-methoxy-5-(2,2,2-trifluoro-1-hydroxyethyl)pyrazolo[1,5-a]pyridin-3-yl)amino)-N-(methyl-d3)nicotinamide], for which, in data set [1] (setting [5]), the “Colon density” value stood at 27.66 ± 1.24 mg/cm, the “Colon length (cm)” value was 7.94±0.32 cm, the “Colon weight” value was 218.38 ± 10.13 mg and the “Spleen index” value was found to be 3.08 ± 0.36 mg/g. The disease-related weight loss entry in data set [1] (FIG. 2. A, result in words) is on record as “inhibiting”. In addition, the DAI scores entry in data set [1] (FIG. 2. B, result in words) is reported as “inhibiting”. Further, the “absolute value of Th1 and Th17 cells” value in data set [1] (FIG. 3. B-C, result in words) was “significantly reduced”. Besides, the “percentage value of CD4^+T cells and Th17 cells in whole blood” value in data set [1] (FIG. 3. D-E, result in words) is given as “significantly reduced”. The “CD4^+T cells in colonic tissue” value in data set [1] (FIG. 4. A, result in words) was “significantly reduced”. Further, in data set [1] (FIG. 4. B, result in words), the colonic histopathological changes entry is recorded as “inhibiting”. Besides, in data set [1] (orally twice daily, result in words), the colitis symptoms entry was “alleviated colitis symptoms”.

The half-life is the time needed for the level to fall by half in the phase considered. As to `COC(=O)c1cnc(NC(=O)C2CC2)cc1Nc1nn(C)c2ccc([C@H](OC)C(F)(F)F)c(OC)c12` [Example 45B, Methyl (S)-6-(cyclopropanecarboxamido)-4-((4-methoxy-1-methyl-5-(2,2,2-trifluoro-1-methoxyethyl)-1H-indazol-3-yl)amino)nicotinate], the half-life in data set [2] (Sprague-Dawley, rat, brain) was 2.23 h; in data set [2] (setting [6]), 2.28 h. For the same compound, the Kp is 0.96 in data set [2] (Sprague-Dawley, rat, brain) and 1.12 in data set [3] (dog, brain). Also, the AUC in data set [2] (setting [7]) was 1280 ng·h/mL; in data set [2] (brain), 1235 ng·h/g; in data set [3] (brain), 1963 ng·h/g; in data set [3] (setting [8]), 1760 ng·h/mL. For the same compound, the “brain exposure in Rats” value in data set [2] is recorded as “good brain exposure”. In addition, the “brain exposure in Dogs” value in data set [3] was “good brain exposure”.

Regarding `COC(=O)c1cnc(NC(=O)C2CC2)cc1Nc1nn(C)c2ccc([C@H](O)C(F)(F)F)c(OC)c12` [Example 48A, Methyl (S)-6-(cyclopropanecarboxamido)-4-((4-methoxy-1-methyl-5-(2,2,2-trifluoro-1-hydroxyethyl)-1H-indazol-3-yl)amino)nicotinate], the half-life in data set [2] (Sprague-Dawley, rat, brain) was 2.04 h; in data set [2] (setting [6]) it was 1.62 h. For the same compound, the Kp in data set [2] (Sprague-Dawley, rat, brain) is 0.19. The values for the AUC in data set [2] (setting [7]) and in data set [2] (brain) were 1530 ng·h/mL and 288 ng·h/g, respectively. For the same compound, the “brain exposure in Rats” value in data set [2] is “good brain exposure”.

Turning to `[2H]C([2H])([2H])O[C@@H](c1ccc2c(c(Nc3cc(NC(=O)C4CC4)ncc3C(=O)OC)nn2C)c1OC)C(F)(F)F` [Example 50B, Methyl (S)-6-(cyclopropanecarboxamido)-4-((4-methoxy-1-methyl-5-(2,2,2-trifluoro-1-(methoxy-d3)ethyl)-1H-indazol-3-yl)amino)nicotinate], the “AUC” value in data set [3] (brain) is 1856 ng·h/g; in data set [3] (setting [8]) it was 1370 ng·h/mL. The Kp in data set [3] (dog, brain) is 1.36. In addition, the “brain exposure in Dogs” value in data set [3] was “good brain exposure”.

Broadly, the Vd is a proportionality between amount in the body and measured concentration, not a real space. A high value points to extensive tissue distribution. One may read the clearance as a measure of how efficiently the substance is removed, as volume per time. Broadly, the Cmax is the maximum level reached in the sampled fluid or tissue. Broadly, the bioavailability is dose-corrected exposure relative to a reference, in per cent. A lower bioavailability goes with poor availability. Turning to `[2H]C([2H])([2H])NC(=O)c1cnc(NC(=O)C2CC2)cc1Nc1nn(C)c2ccc([C@H](OC([2H])([2H])[2H])C(F)(F)F)c(OC)c12` [Example 55A, (S)-6-(cyclopropanecarboxamido)-4-((4-methoxy-1-methyl-5-(2,2,2-trifluoro-1-(methoxy-d3)ethyl)-1H-indazol-3-yl)amino)-N-(methyl-d3)nicotinamide], in data set [4] (intravenous, 3 mg/kg), the AUC came to 7600 ng·h/mL, the volume of distribution (Vd) stood at 0.819 L/kg, the clearance is 6.57 mL/min/kg and the half-life was 2.57 h. In data set [4] (oral, 5 mg/kg), this compound gave an AUC of 7490 ng·h/mL, a peak concentration (Cmax) of 2300 ng/mL, a bioavailability of 59.2% and a half-life of 2.38 h.
